Measured values: patent publication US7781565B2 (priority 2006, dated 2010)
Entries after “also recorded” stand apart in the source; their conditions may differ.

System: NCI-60 cell lines
Assay type: cell-based, human

Substance | Cell Line the peptide is associated with (peptide recovered from phage library selection on this NCI-60 cell line) | Cell Line (NCI-60 cell line the peptide and its motif are associated with) | Cell Line with which the peptide (and its tripeptide motif) is associated | Cell Line (NCI-60 cell line the peptide is associated with)
DWGSRGV | MDA-MB-231 Breast |  |  | 
EAGVRLN |  | OVCAR-4 Ovarian |  | 
PPRAVTN |  | UACC62 Melanoma |  | 
PPPWGLR |  |  | K-562-Leukemia | 
WWGLGWL |  |  |  | HCC-2998-Colon
PDRASDG |  |  | Hop-62-Lung | 
PATRGSV |  |  | Hop-92-Lung | 
VWLRGST |  | M14 Melanoma |  | 
HVKNGRV |  | SK-MEL-28 Melanoma |  | 
YSGRLVM |  |  |  | SNB-75 CNS
GRMLVSG |  | OVCAR-4 Ovarian |  | 
NLADGSV |  |  | H322-Lung | 
ASAGAVS |  | 786-0 Renal |  | 
GLWYRAV |  | SK-MEL-28 Melanoma |  | 
MSARGIL |  | SK-OV-3-3 Ovarian |  | 
ARRGSGL |  | MALME-3M Melanoma |  | MALME-3M Melanoma
DYVGAGT |  | DU-145 Prostate |  | 
YMYHGRV |  | OVCAR-4 Ovarian |  | 
FAGRAPR | ACHN Renal |  |  | 
FSGLVVA |  |  |  | HT-29 Colon
GLGVSGV |  |  | Hop-62-Lung | 
RGLVRVV |  |  |  | COLO-205-Colon
SVRVGSG |  | SK-MEL-28 Melanoma |  | 
WAHAASY | CAIK-1 Renal |  |  | 

Substance | Cell Line the peptide is associated with (peptide recovered from phage library selection on this NCI-60 cell line) | Cell Line (NCI-60 cell line the peptide and its motif are associated with) | Cell Line with which the peptide (and its tripeptide motif) is associated | Cell Line (NCI-60 cell line the peptide is associated with)
EGVRGVF | A498 Renal | A498 Renal |  | 
LRVGHAG | SN12C Renal |  |  | 
GRSSVSD |  | OVCAR-8 Ovarian |  | 
SGGRFVP | MDA-MB-231 Breast |  |  | 
GRERVSH | CAIK-1 Renal |  |  | 
TGRSSFW | TK-10 Renal |  |  | 
WFGAVGL |  |  | Molt-4-Leukemia | 
GAVTSAD |  | SK-MEL-2 Melanoma |  | 
VGVSQEW | TK-10 Renal |  |  | 
AEPRGRV |  |  | H460-Lung | 
SRYGLRR |  |  | RPMI-8226-Leukemia | 
RGSVASA |  |  |  | HT-29 Colon
GVGGRQS | TK-10 Renal |  |  | 
RGVGKTK | MDA-MB-231 Breast |  |  | 
GTHSGLR |  | SK-MEL-2 Melanoma |  | 
GSMHRVS |  |  |  | SF-295 CNS
WSAGGPH |  |  | SR Leukemia | 
EFTRRAS |  |  | A549-Lung | 
SHCGPSN |  |  |  | SF-295 CNS
GSWARGY |  |  |  | HCT-15 Colon
DVVGVLK |  |  |  | SF-268 CNS
GAGLSTS |  |  | H322-Lung | 
PVRGSVD |  |  | HL-60-Leukemia | 
SGWFAGS |  | SK-OV-3-3 Ovarian |  | 

Substance | Cell Line the peptide is associated with (peptide recovered from phage library selection on this NCI-60 cell line) | Cell Line (NCI-60 cell line the peptide and its motif are associated with) | Cell Line with which the peptide (and its tripeptide motif) is associated | Cell Line (NCI-60 cell line the peptide is associated with)
YGIGVRL |  |  | H23-Lung | 
KGRVSAG |  |  |  | SNB-19 CNS; also recorded: SF-539 CNS
EVLVSGD |  |  | Molt-4-Leukemia | 
GGLKVWR |  | PC3 Prostate |  | 
WLLRSWS | CAIK-1 Renal |  |  | 
TELVSWS |  |  | H322-Lung | 
RGSPAAA | MDA-MB-435-Breast |  |  | 
YGVSRLL |  | DU-145 Prostate |  | 
DLVGRVR | BT-549 Breast |  |  | 
VSGSGTA |  | PC3 Prostate |  | 
YLGRRVS |  |  |  | SW620-Colon
EGGRTHW |  |  |  | HT-29 Colon
GHGSGSR | ACHN Renal |  |  | 
FRAGVSH |  |  |  | HCT-116 Colon
LLSTSIR |  |  | RPMI-8226-Leukemia | 
NSFGLRY |  |  |  | COLO-205-Colon
GVAGLRW |  |  |  | SW620-Colon
FRASSEV |  |  | Hop-62-Lung | 
VAASESH |  |  | Hop-62-Lung | 
RVSGSPV | NCI/ADR-RES Breast |  |  | 
TYCDRAV | BT-549 Breast |  |  | 
LLSRAQA | BT-549 Breast |  |  | 
MVLRGSY |  |  |  | SNB-75 CNS
GAVLFRV |  |  | Hop-62-Lung | 

Substance | Cell Line the peptide is associated with (peptide recovered from phage library selection on this NCI-60 cell line) | Cell Line (NCI-60 cell line the peptide and its motif are associated with) | Cell Line with which the peptide (and its tripeptide motif) is associated | Cell Line (NCI-60 cell line the peptide is associated with)
SPTGGRR |  |  |  | LOX-IMVI Melanoma
LRRSSFS |  |  | K-562-Leukemia | 
VGLRDWG |  |  |  | SW620-Colon
DGGRRSS |  |  | EKVX-Lung | 
MITRGRL |  |  |  | HCT-15 Colon
ASLPPRA |  |  | EKVX-Lung | 
VGAVYFL |  |  | H322-Lung | 
LLRGLEL |  |  | HL-60-Leukemia | 
ADIGAGG |  |  | HL-60-Leukemia | 
ARGVLLM |  |  | CCRF-CEM Leukemia | 
VLVEGAV | TK-10 Renal |  |  | 
RSSLGLP |  |  | H226-Lung | 
LGAGMIA |  | OVCAR-8 Ovarian |  | 
RRVSLVA |  |  | CCRF-CEM Leukemia | 
GAHGLVR |  |  | SR Leukemia | 
AVDGLRL |  |  | SR Leukemia | 
VLRSIPS |  |  |  | SF-295 CNS
GRVPGFE |  |  | H322-Lung | 
VLASLSG |  | IGROV1 Ovarian |  | 
LDRSGGL |  |  |  | HCT-116 Colon
LASLARP | T-47D Breast |  |  | 
LLSGVIL |  |  |  | LOX-IMVI Melanoma
AVYRAGR |  |  | H522-Lung | 
